Experimental data: US11278567B2, “Methods of modifying neuronal function by changing intracellular magnesium levels” (Neurocentria, Inc., priority 2016, dated 2022)
Values joined by “and” are separate entries in the source; they are usually repeats but may differ in a detail not shown here. Equal values may be shown once. “Also recorded” adds a separate entry of the source.

How the values were obtained:
Format in all cases: cell-based, Sprague-Dawley rats
[1] = test system: hippocampal CA3-CA1 pyramidal neurons; assay: In vitro immunofluorescence quantification of presynaptic proteins in terminals
Description: (§1) High-density primary cultures of hippocampal CA3-CA1 pyramidal neurons of neonatal Sprague-Dawley rats (<24 hr) were used in the current study, as described before (Slutsky et al., Neuron. 2004; 44(5):835-49). The neurons were cultured on 1 #coverslips (8 mm×8 mm) for 14-28 days in vitro (div) before use. [Mg^2+]o in culture medium was adjusted to different concentrations according to experimental designs. In each experiment, sister cultures from the same batch were always used for treatment and control conditions on the same day, and the experimental results were repeated using several different batches.
The neurons were fixed in 1×PBS (pH 7.4) containing 1% Paraformaldehyde (E.M.S.), 0.01% Glutaraldehyde (Alfa Aesar) and 4% Sucrose (Amresco) for 1 hr RT. […]
For FIG. 3B, the average density of immunoreactive puncta of a given AOI was calculated from the total puncta number divided by the total MAP2(+) area; the values from several AOIs were averaged to represent the average puncta density in a coverslip; for each data bar, the mean±SEM of these coverslips were presented. […] For FIGS. 5C and 5D, the mean fluorescence intensity per pixel in each cell body was measured (the somatic area of each cell body was measured from DIC image) and then the mean±SEM of all the cell bodies were presented. […]

[2] = test system: hippocampal CA3-CA1 pyramidal neurons; assay: Functional terminal density (N5AP): FM dye vesicle turnover under 5AP bursts; conditions: for N5AP after blockade of axonal transport: 0.5 mM
Description: as §1
Vesicle turnover in response to bursting action potentials (see below) is a measure of the functional status of a presynaptic terminal. FM dyes were used to visualize the vesicle turnover of presynaptic terminals. In the current study, 10 μM FM1-43 or 20 μM FM4-64 (Biotium) was loaded under different patterns of field stimulations, such as 5AP bursts (5 action potentials (Aps) at 100 Hz for each burst, 6 bursts (30 APs totally) with 10 s inter burst interval were given) and “maximal stimulation” (600 APs at 10 Hz). Releasable fluorescence in the AOI (ΔF) was obtained from the difference of loading (F1) and unloading (F2) images, i.e. ΔF=F1−F2 (see FIG. 1A). For FIG. 3C, the loading/unloading procedures were performed under 5AP bursts and 600AP stimulation at the same area of network successively. Subsequently, the ΔF5AP and ΔF600AP images were registered to colocalize the vesicle turnover for these two stimulating protocols for individual terminals.
The functional terminal density (N5AP) at a dendritic branch was defined as the number of 5AP bursting stimulation induced FM(+) puncta (#FM5AP) per unit area of dendritic branch (A), N5AP=#FM5AP/A. […] immunofluorescence (IF) staining of MAP2 (as described below), which specifically presents in dendritic skeleton, was used to label dendritic area and A was calculated from MAP2(+) area. To limit the error of A introduced by the immunoreactivity of MAP2(+), the staining and imaging parameters were rigorously controlled in different batches of IF and the grey-scale histograms of MAP2(+) images were equalized before measuring A. Here, to ensure the equalized MAP2(+) marked area could reflect the real morphology of dendrites, the parameters of histogram equalization were set based on the comparison of MAP2(+) and DIC images. For most experiments, the average N5AP of an AOI was calculated from the total number of FM(+) puncta divided by total MAP2(+) area to reduce the sampling error. Then the mean N5AP of all AOIs (1-5 AOIs/coverslip) was used to represent the average N5AP in a coverslip; for each statistical data point, several coverslips were used and the mean±standard error of the mean (SEM) of all coverslips was represented (see figure legends). For FIGS. 3B and D, the FM(+) puncta density induced by 600AP stimulation was also calculated and presented in the same way as described above. Exceptionally, for FIG. 2B, each point represented the N5AP at a single segment of dendritic branch. In general, in an AOI (59 μm×59 μm, with varying dendritic density) 351-1598 presynaptic functional terminals could be detected by FM dyes for different experimental groups under 5AP bursting stimulation.

[3] = test system: hippocampal CA3-CA1 pyramidal neurons; assay: Intracellular Mg2+ measurement with Magnesium Green-AM (MgGrn); conditions: for [Mg2+]i after blockade of axonal transport: 0.5 mM
Description: as §1
The mature cultures were incubated in Tyrode's solution with 2 μM Magnesium Green™-AM (MgGrn, an intracellular Mg^2+ indicator, Invitrogen) for 30 min and washed out for 20 min; both at 37° C. Fluorescent images of several AOIs in each coverslip were taken on FV300 at RT. In the current study, the MgGrn fluorescence at basal condition (without eliciting any AP stimulus) (FIG. 1A) was measured to eliminate any effects caused by AP-induced intracellular Ca^2+ fluctuations. Since the intracellular Ca^2+ concentration ([Ca^2+]i) at basal condition was usually <100 nM, the contribution of Ca^2+ to MgGrn fluorescence was very small. Thus, the fluorescent intensity of MgGrn could be considered proportional to [Mg^2+]i. Since the measured MgGrn fluorescence was also dependent on the local volume of branches in network, a physical model was built to describe this phenomenon and the calculating formula that corrected the effect of varying local volumes was derived.
In the experiments, given a randomly selected AOI of dendritic area (the image was obtained as described above), 50-100 branches were randomly selected from each AOI and the mean intensity of fluorescence (i.e. F(z)max) of each branch was measured. Meanwhile, the diameter of each branch (d) was measured from the DIC image, then the F(z)max/d was calculated to represent the [Mg^2+]i in the branch. The mean value of these 50-100 branches was calculated to represent the level of [Mg^2+]i in the AOI. […]

[4] = test system: hippocampal CA3-CA1 pyramidal neurons; assay: Mitochondrial status assessment (JC-1 membrane potential, mitochondrial density)
Description: The neurons were cultured on 1 #coverslips (8 mm×8 mm) for 14-28 days in vitro (div) before use. [Mg^2+]o in culture medium was adjusted to different concentrations according to experimental designs.
For FIG. 7A, mitochondria were marked with 40 nM Mitoview633 (Biotium) for 15 min and then washed out in blank medium for 15 min, both at 37° C. For FIG. 6A, the membrane potential-sensitive fluorescent dye JC-1 (1 μM) (Invitrogen) was used. JC-1 was incubated for 15 min followed by a 15 min washout at 37° C. Fluorescent images were taken on FV300 confocal. Mitochondrial membrane potential (ΔΨ) of each mitochondrion was estimated by the ratio of fluorescence of aggregate versus monomer form of JC-1, i.e. Faggr/Fmono. JC-1 was excited by 488 nm laser and the emission spectra were collected at 510-575 nm and >575 nm at the same time separately. Then the ratio of fluorescence at >575 nm versus at 510-575 nm (Faggr/Fmono) was calculated for each individual mitochondrial punctum to represent the ΔΨ of that mitochondrion. To estimate the valid range of Faggr/Fmono, Faggr/Fmono of individual mitochondria was measured before and after administering 5 μM Carbonyl cyanide 4-(trifluoromethoxy)phenylhydrazone (FCCP) 5 min at the same AOI. […] Faggr/Fmono was calculated for each individual meaningful punctum and the mean value of population was calculated from all the puncta to represent the general ΔΨ in this AOI. 3-5 AOIs were measured for each coverslip and the mean of the AOIs were calculated to represent the average ΔΨ of the coverslip. For each bar or point in FIG. 6, several coverslips were used (described in legends). The density of mitochondria (Nmito) was also quantified by counting the number of JC-1-aggregate(+) fluorescent puncta (FIG. 6) or MitoView633(+) puncta (FIG. 7) per area of branches.

[5] = test system: hippocampal CA3-CA1 pyramidal neurons; assay: Probability of transmitter release (Pr) in individual boutons, FM dye; conditions: [Mg2+]o elevated from 0.8 to 1.2 mM for four hours; single action potential input
Description: FIGS. 25Aa to 25B. Intracellular Mg^2+ is a negative regulator of Pr. (FIG. 25Aa-25Ac) Inverse relationship between Pr and intracellular Mg^2+ concentration ([Mg^2+]i) in individual boutons. For individual terminals, the higher the [Mg^2+]i, the lower the Pr. (FIG. 25Aa) [Mg^2+]i and Pr in individual boutons were determined by Magnesium Green (MgGrn) and FM4-64, respectively. (FIG. 25Ab) Pr was negatively associated with [Mg^2+]i in individual boutons in a synaptic network. (FIG. 25Ac) Pr was linearly correlated with 1/[Mg^2+]i. […] Extracellular Mg^2+ concentration ([Mg^2+]o) was elevated from 0.8 to 1.2 mM for four hours to increase [Mg^2+]i.
FIGS. 26A and 26B. (FIG. 26A) Representative DIC and FM1-43 images comparing presynaptic responses to single (“1AP”: 30AP0.5 Hz) and bursting (“5AP”: 6 groups of 5 APs at 100 Hz, ISI 10 sec) stimulus at low (0.8 mM) and high (1.2 mM) [Mg^2+]o. (FIG. 26B) Quantitative analysis of images from FIG. 26A. ***p<0.001. For methods see Slutsky et al, 2004, and Example 1. 2AP and 3AP refer to 6 groups of 2 APs at 100 Hz or 3 APs at 100 Hz, respectively.

[6] = elevating Mg2+ level for long term (>48 hr)

**Q.** Which results are given for `COc1cc2c(c(OC)c1OC)-c1ccc(OC)c(=O)cc1[C@@H](NC(C)=O)CC2` [Colchicine]?
**A.** concentration of presynaptic proteins in terminals ([1]; 0.5 mM, as a function of blocking time, low and high [Mg2+]o): decrease; also recorded: decreased linearly; N5AP after blockade of axonal transport ([2]; at the high [Mg2+]o condition): remarkable reduction; N5AP after blockade of axonal transport ([2]; while increasing [Mg2+]o): prevented the increase; [Mg2+]i after blockade of axonal transport ([3]; at the high [Mg2+]o condition): without change; [Mg2+]i after blockade of axonal transport ([3]; while increasing [Mg2+]o): did not prevent elevation

**Q.** How did the “increase in expression of Ca2+ sensor (SYT1) and coupling proteins in terminals” value ([1]; high [Mg2+]o (1.2 4 hr) vs Ctrl 0.8) turn out when `[Mg+2]` [Mg^2+] was run?
**A.** Its value is 30-44%.

**Q.** And the “terminals functional in response to 5AP bursts (of 600AP-releasable terminals)” value ([2]; [Mg2+]o elevated from 0.8 to 1.2 mM for 4 hr)?
**A.** Its value is 90.6±2.9% and ~90%.

**Q.** What about the “increase in mitochondrial membrane potential (ΔΨ)” value ([4]; elevating Mg2+ for 4 hr) of the same compound?
**A.** Its value is roughly 39%.

**Q.** What about the “increase in general mitochondrial function (Nmito×ΔΨ)” value ([4]; elevating Mg2+ level for 4 hr) of the same compound?
**A.** The value was ~68% and 67.8±12.4%.

**Q.** And the “increase in mitochondrial density (Nmito) in distal branches” value ([4]; elevating Mg2+ level for 4 hr)?
**A.** The value was ~20% and 19.4±2.9%.

**Q.** And the “increase in general mitochondrial function (Nmito×ΔΨ)” value [4, 6]?
**A.** The value was 56.2±6.5%.

**Q.** What about the “increase in mitochondrial density (Nmito) in distal branches” value [4, 6] of the same compound?
**A.** The value was 19.6±2.1%.

**Q.** And the “probability of release (Pr)” value [5]?
**A.** Its value is “reduced”.

**Q.** For `N#CC(C#N)=NNc1ccc(OC(F)(F)F)cc1` [FCCP, Carbonyl cyanide 4-(trifluoromethoxy)phenylhydrazone, reference compound], which “mean Faggr/Fmono of all mitochondria (JC-1, ΔΨ)” value ([4]; 5 μM, 5 min, from 1.21±0.02 before) is on record?
**A.** The value was 0.26±0.002.

**Q.** Which “functional terminal density (N5AP)” value ([2]; 1 μM for 4 hr added to Ctrl ([Mg2+]o 0.8 mM), 5AP bursts) does the source give for `CN(C)CCCN1c2ccccc2CCc2ccccc21` [Imipramine] here?
**A.** The value was “increased”.

**Q.** And the “persistence of N5AP enhancement” value ([2]; after 1 μM for 4 hr)?
**A.** The value was roughly 32 h.

**Q.** And the “[Mg2+]i (MgGrn fluorescence)” value ([3]; 1 μM for 4 hr)?
**A.** Its value is “elevation”.
